According to patent publication US7807368B2, “Cyclin-dependent kinase inhibitors as targets for opiod growth factor treatment” (priority 2006, dated 2010):

Legend:
Format in all cases: cell-based, human
[1] = test system: SCC-1 cells; experiment: siRNA knockdown of OGFr, growth of SCC-1 cells
Protocol: siRNA knockdown of OGFr. […] For transfection, 5×10^4 cells per well were seeded in 6-well plates containing 1 ml of serum-containing media without antibiotics. In each well, 20 nM OGFr-siRNA or control siRNA solutions in serum-free media were added. Cells were incubated for 4 h at 37° C. prior to the addition of OGF. Cultures were incubated an additional 20 h, and then 1 ml fresh complete media either lacking or containing OGF was added. […] Two independent experiments were conducted. The control siRNAs were purchased from Ambion.

[2] = test system: p16; experiment: Western blot of p16, other CKIs and Cdk4 in SCC-1 cells; settings: for p16 expression: synchronized SCC-1 cells, 3 h, 10^-6 M OGF, 10^-5 M naloxone
Protocol: Synchronized cells (˜2×10^6) from each treatment were solubilized in 200 μl RIPA buffer (1×PBS, 10 μM IGEPAL, 1 mg/ml SDS, 5 mg/ml deoxycholic acid), containing protease and phosphatase inhibitors (2 μg/ml aprotinin, 3 mg/ml phenylmethyl sulfonyl fluoride (PMSF), 1 mM sodium orthovanidate, 1 μM okadaic acid). Total protein concentrations were measured using the DC protein assay kit (Bio-Rad Laboratories, Hercules, Calif.). Equal amounts of protein (40 μg) were subjected to 10% SDS-PAGE followed by transfer of proteins onto polyvinylidene difluoride (Millipore, Billerica, Mass.) using standard protocols. The following antibodies were purchased from commercial sources: phospho-Rb (Ser795), phospho-Rb (Ser807/811) (Cell Signaling Technology, Beverly, Mass.); phospho-Rb (Thr821) (Biosource, Camarillo, Calif.); Cdk4, cyclin D1, p15, p16, p18, p19 (Santa Cruz Biotechnology, Santa Cruz, Calif.); total Rb, p21, p27 (BD PharMingen, San Diego, Calif.); β-actin (Clone AC-15, Sigma). The following dilutions of primary antibodies were used to detect respective proteins. 1:200 phospho-Rb (Ser795), 1:200 phospho-Rb (Ser807/811); 1:200 phospho-Rb (Thr821); 1:200 Cdk4, 1:200 cyclin D1, 1:100 p16; 1:200 total Rb, 1:200 p21, 1:100 p27. Membranes were probed with secondary anti-rabbit or anti-mouse horseradish peroxidase-conjugated antibodies (GE Healthcare-Amersham Biosciences, Piscataway, N.J.); blots were developed using a chemiluminescence Western blotting detection system (GE Healthcare-Amersham Biosciences).
To determine equal loading of total protein samples, blots were reprobed with monoclonal antibody against β-actin at a dilution of 1:2000. If necessary, membranes were stripped in stripping buffer (62.5 mM Tris-HCl and 100 mM β-mercaptoethanol/2% SDS, pH 6.7) at 50° C. before being re-probed. Means and SE were determined from 3 or more independent experiments.
(§1) To quantify expression levels or kinase activity, the optical density of each band was determined by densitometry and analyzed by QuickOne (Bio-Rad Laboratories). Each value was normalized to β-actin from the same blot. To report the changes due to OGF treatment, the fold increase was calculated by dividing the normalized value from the OGF treated samples by the normalized value of control samples at each time point; thus, increases due to OGF have values greater than one, and decreases due to OGF have values less than one.
(§2) The p16-targeted siRNAs (antisense:5′ […]-3′; sense (SEQ ID NO:5): 5′ […]-3′(SEQ ID NO:6) were obtained as ready-annealed, purified duplex probes (Invitrogen, Carlsbad, Calif.). For transfection, 2×10^5 cells per well were seeded in 6-well plates containing 1 ml of serum-free media without antibiotics. In each well, 20 nM of p16-siRNA or control siRNA solutions in serum-free media were added. Cells were incubated for 4 h at 37° C. prior to the addition of OGF. Cultures were incubated for additional 20 h, and then 1 ml fresh complete media either lacking or containing OGF was added. At the indicated time points, cells were collected for growth curves or Western blotting. Three or more independent experiments were conducted. The control siRNAs were purchased from Ambion.

[3] = test system: p21; experiment: Western blot of p21, p27 and Cdk2 in BxPC-3 cells; settings: synchronized BxPC-3 cells, 9 hours, 10^-6 M OGF, 10^-5 M naloxone
Protocol: (§3) Synchronized cells (2×10^6) from each treatment were solubilized in 200 μl RIPA buffer (1×PBS, 10 μM IGEPAL, 1 mg/ml SDS, 5 mg/ml deoxycholic acid), containing protease and phosphatase inhibitors (2 μg/ml aprotinin, 3 mg/ml phenylmethyl sulfonyl fluoride, 1 mM sodium orthovanidate, 1 μM okadaic acid). Total protein concentrations were measured using the DC protein assay kit (Bio-Rad Laboratories, Hercules, Calif.). Equal amounts of protein (40 μg) were subjected to 10% SDS-PAGE followed by transfer of proteins onto polyvinylidene difluoride (Millipore, Billerica, Mass.) using standard protocols.
The following antibodies were purchased from commercial sources: phospho-Rb (Ser795), phospho-Rb (Ser807/811) (Cell Signaling Technology, Beverly, Mass.); Cdk2, p57 (Santa Cruz Biotechnology, Santa Cruz, Calif.); p21, p27, total Rb (BD PharMingen, San Diego, Calif.); β-actin (Clone AC-15, Sigma-Aldrich).
Membranes were probed with secondary anti-rabbit or anti-mouse horseradish peroxidase-conjugated antibodies (GE Healthcare-Amersham Biosciences, Piscataway, N.J.), and developed using a chemiluminescence Western blotting detection system.
To determine equal loading of total protein samples, blots were re-probed with monoclonal antibody against β-actin at a dilution of 1:2000. If necessary, membranes were processed in stripping buffer (62.5 mM Tris-HCI and 100 mM β-mercaptoethanol/2% SDS, pH 6.7) at 50° C. before being re-probed.
as §1, with “treatment, we calculated” for “treatment,”, “increase” for “increase was calculated”, “one. For all Western blot analyses, 3 or more independent experiments were performed.” for “one.”
The p21-targeted siRNAs were obtained from Santa Cruz Biotechnology, and negative control siRNAs were purchased from Ambion (Ambion, Inc., Austin, Tex.). For transfection, 2×10^5 cells per well were seeded in 6-well plates containing 1 ml of media without antibiotics. For each well, 1 μl of siRNA stock (20 μM) was mixed with 175 μl of serum-free media. Two μl of Oligofectamine reagent (Invitrogen, Carlsbad, Calif.) was added to prewashed cells in each well, making the final concentration for siRNA approximately 20 nM. Cells were incubated for 4 hours at 37° C. prior to the addition of OGF. Eighteen hours later, 1 ml fresh complete media with or without OGF was added to the cultures; media and OGF were replaced daily. At the indicated time points, cells were collected for growth curves or Western blotting.

[4] = test system: SCC-1 cells; experiment: Growth of SCC-1 cells transfected with p16 siRNA or negative control siRNA; settings: SCC-1 cells transfected with p16 siRNA, exposed to OGF for 96 h
Protocol: as §2

[5] = test system: p16; experiment: Western blot of p16 in CAL-27 cells; settings: CAL-27 cells transfected with p16 siRNA
Protocol: (§4) The SCC-1 (UM-SCC-1) cell line was obtained from the University of Michigan Cancer Research Laboratory, and CAL-27 and SCC-4 cells were obtained from the American Type Culture Collection (Manassas, Va.). SCC-1 and CAL-27 cells were cultured in DMEM media, whereas SCC-4 cells were grown in 1:1 Hams F-12 DMEM media. All media was supplemented with 10% fetal bovine serum (HyClone, Logan, Utah), 1.2% sodium bicarbonate, and 5000 units/ml penicillin, 5 μg/ml streptomycin and 10 μg/ml neomycin. OGF was purchased from Sigma-Aldrich (St. Louis, Mo.), dissolved in sterile water, and used at a final concentration of 10^−6 M.
as §3, with “(˜2×10^6)” for “(2×10^6)”, “fluoride (PMSF),” for “fluoride,”, “protocols. […]” for “protocols.”

[6] = test system: p16; experiment: Western blot of p16 in SCC-4 cells; settings: SCC-4 cells transfected with p16 siRNAs, 72 h
Protocol: as §4
as §3, with “(˜2×10^6)” for “(2×10^6)”, “fluoride (PMSF),” for “fluoride,”, “protocols. […]” for “protocols.”

O=C1CC[C@@]2(O)[C@H]3Cc4ccc(O)c5c4[C@@]2(CCN3CC2CC2)[C@H]1O5 [NTX]
effect on growth of OGFr-siRNA cultures ([1]; SCC-1 cells subjected to OGFr-siRNA, 10^-6 M): no further effects
increase in number of cells ([1]; control siRNA-exposed SCC-1 cells, 10^-6 M, 96 h): 27%
increase in number of cells ([1]; wt SCC-1 cells, 10^-6 M, 96 h): 24%

C=CCN1CC[C@]23c4c5ccc(O)c4O[C@H]2C(=O)CC[C@@]3(O)[C@H]1C5 [naloxone]
p16 expression [2]: no effect
p16 expression ([2]; listed as NAL): no change
p21 expression [3]: no effect
p21 expression ([3]; listed as NAL): no change

OGFr-siRNA: OGFr-targeted siRNA duplex (SEQ ID NO:3 and 4) from Ambion (chain 1 UAGAAACUCAGGUUUGGCG; chain 2 CGCCAAACCUGAGUUUCUA; listed as RNA, chemistry not given here)
more cells than wt and control siRNA-treated cultures ([1]; 20 nM siRNA, 96 h): approximately 19%

p16 siRNA: p16-targeted siRNA duplex (SEQ ID NO:5 and 6) from Invitrogen (chain 1 ACACCGCUUCUGCCUUUUCUU; chain 2 GAAAAGGCAGAAGCGGUGUUU; chemistry not given here)
p16 protein level compared to untransfected cells ([2]; SCC-1 cells transfected with p16 siRNA, after 72 h): significantly reduced levels
effect of p16 knockdown on OGF growth inhibition [4]: blocked OGF inhibitory action
p16 levels relative to control cells [5]: significantly reduced p16 levels
p16 protein level compared to control cells [6]: significantly reduced levels
